Measurements as given in PubChem BioAssay (NCI).
“And” between values parts separate entries of the source, which are not always exact repeats. Equal values may be shown once.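 Results reflect a 48-hour exposure of cells in 96-well plates to compound at five concentrations. Abbreviation: GI50, concentration required for 50% inhibition of growth. At the TGI there is no net growth.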

How the values were obtained:
Assay in all cases: inhibition of tumour cell growth, NCI panel, 48 h
T-47D breast = system: T-47D breast
SN12C renal = system: SN12C renal
HCT-15 colon = system: HCT-15 colon
786-0 renal = system: 786-0 renal
UO-31 renal = system: UO-31 renal
HL-60(TB) leukemia = system: HL-60(TB) leukemia
MDA-N = system: MDA-N
KM12 colon = system: KM12 colon
IGROV1 ovarian = system: IGROV1 ovarian
KM20L2 colon = system: KM20L2 colon

Structure (SMILES)	TGI (T-47D breast)	TGI (SN12C renal)	TGI (HCT-15 colon)	TGI (786-0 renal)	TGI (UO-31 renal)	TGI (HL-60(TB) leukemia)	TGI (MDA-N)	TGI (KM12 colon)	TGI (IGROV1 ovarian)	GI50 (T-47D breast)	GI50 (SN12C renal)	GI50 (HCT-15 colon)	GI50 (786-0 renal)	GI50 (UO-31 renal)	GI50 (HL-60(TB) leukemia)	GI50 (KM12 colon)	GI50 (IGROV1 ovarian)	TGI (KM20L2 colon)	GI50 (MDA-N)	GI50 (KM20L2 colon)
CCN1C(NN)=NS(=O)(=O)c2ccccc21	> 100 µM	> 100 µM	> 100 µM	> 100 µM	> 100 µM	> 100 µM	> 100 µM	> 100 µM	> 100 µM	–	–	–	–	–	–	–	–	–	–	–
Cc1cnc(/C=N\NC(N)=S)c2cccc(N)c12	> 100 µM	> 26.5 µM and 4.35 µM	> 100 µM	–	10.3 µM and 4.4 µM	3.18 µM and 2.83 µM	> 100 µM	> 100 µM	> 100 µM	2.49 µM	1.51 µM	3.59 µM	0.867 µM and 0.501 µM	1.88 µM	0.752 µM	4.82 µM	2.4 µM	–	–	–
CCOC(=O)C1=C(O)CSC1=Nc1ccccc1	–	> 100 µM	> 100 µM	> 100 µM	> 100 µM	> 100 µM	–	> 100 µM	> 100 µM	–	–	–	–	–	–	–	–	> 100 µM	–	–
O=C1N(c2ccccc2)C(=O)C2(SC=NN2Cc2ccccc2)N1c1ccccc1 (stereo unspecified)	–	> 100 µM	–	> 100 µM	> 100 µM	> 100 µM	–	> 100 µM	> 100 µM	–	–	–	–	–	–	–	–	> 100 µM	–	–
C[C@]12CCc3nonc3C1CC[C@@H]1C2CC[C@]2(C)NC(=O)CCC12 (stereo partly specified)	–	> 100 µM	> 100 µM	> 100 µM	> 100 µM	> 100 µM	–	> 100 µM	> 100 µM	–	–	–	–	–	–	–	–	> 100 µM	–	–
O=C1c2ccccc2C(=O)c2c(NCCNCCO)ccc(O)c21	–	12.8 µM	13.7 µM	15.9 µM	5.58 µM	8.77 µM	–	8.1 µM	13.4 µM	–	–	–	–	–	–	–	–	12.3 µM	–	–
O=S(=O)(O)c1ccc(-c2nnc(-c3ccccn3)nc2-c2ccc(S(=O)(=O)O)o2)o1	> 100 µM	> 100 µM	> 100 µM	> 100 µM	> 100 µM	> 100 µM	> 100 µM	> 100 µM	> 100 µM	–	–	–	–	–	–	–	–	–	–	–
COc1ccc(C(=O)C(C(=O)C(=O)Nc2ccc(Cl)c(Cl)c2)c2ccc(OC)cc2)cc1 (stereo unspecified)	–	> 100 µM	> 100 µM	> 100 µM	> 100 µM	> 100 µM	–	> 100 µM	> 100 µM	–	–	–	–	–	–	–	–	> 100 µM	–	–
COc1ccc2c(c1)C(=O)C(=O)c1cc(O)c(OC)c(OC)c1-2	2.81 µM and 3.13 µM	1.6 µM and 3.08 µM	1.78 µM and 3.53 µM	1.72 µM and 3.26 µM	1.7 µM	0.681 µM	1.4 µM and 2.55 µM	3.28 µM	1.56 µM and 3.08 µM	1.75 µM	1.71 µM	1.73 µM	1.85 µM	–	–	–	1.71 µM	–	1.28 µM	–
Cc1c(C(=O)C/C(=N/NC(=O)C[n+]2ccccc2)C(=O)Nc2ccccc2)[n+](=O)c2ccccc2n1O	–	> 100 µM	> 100 µM	> 100 µM	> 100 µM	> 100 µM	–	> 100 µM	> 100 µM	–	–	–	–	–	–	–	–	> 100 µM	–	–
O=C(O)CCC(=O)c1ccc2ccc3cccc4ccc1c2c34	> 100 µM	> 100 µM	> 100 µM	> 100 µM	> 100 µM	> 100 µM	> 100 µM	> 100 µM	> 100 µM	–	–	–	–	–	–	–	–	–	–	–
O=c1cccccc1NCCCCCCNc1cccccc1=O	–	> 100 µM	> 100 µM	> 100 µM	> 100 µM	> 100 µM	–	> 100 µM	> 100 µM	–	–	–	–	–	–	–	–	> 100 µM	–	–
CC(=O)O[C@]1(C)OC(=O)[C@@H](C)N1[N+](=O)[O-]	–	> 100 µM	> 100 µM	> 100 µM	> 100 µM	> 100 µM	–	> 100 µM	> 100 µM	–	–	–	–	–	–	–	–	> 100 µM	–	–
C/C1=C/C2=CC(C)C[C@@H]2C(=O)[C@]2(C)C(=O)CC(C)(C)[C@H]2CC1=O (stereo partly specified)	> 50 µM	> 50 µM	> 50 µM	> 50 µM	> 50 µM	> 50 µM	> 50 µM	> 50 µM	> 50 µM	–	–	–	–	–	–	–	–	–	–	–
CC/C(=C(/CC)c1ccc([O-])cc1)c1ccc([O-])cc1.CC/C(=C(\CC)c1ccc([O-])cc1)c1ccc([O-])cc1.O=C([CH-]C(=O)c1ccccc1)c1ccccc1.O=C([CH-]C(=O)c1ccccc1)c1ccccc1.O=C([CH-]C(=O)c1ccccc1)c1ccccc1.O=C([CH-]C(=O)c1ccccc1)c1ccccc1.[Ti+4].[Ti+4]	–	> 100 µM	> 100 µM	32.4 µM	72.2 µM	> 100 µM	–	> 100 µM	> 100 µM	–	47.1 µM	39.4 µM	16.9 µM	35 µM	> 100 µM	26.3 µM	41.9 µM	77.8 µM	–	29.5 µM
